# Source: US20250122191A1, “COMPOUNDS AS BCL-2 INHIBITORS” (Fochon Biosciences, Ltd, priority 2021, published 2025)
# Columns and labels:
# Format in all cases: cell-based
# RS4;11-BCL-2 D103E cells = assay: Cell proliferation assay (MTS), RS4;11-BCL-2 D103E engineered cells; conditions: Homo sapiens, 72 h, read-out: RS4, 11 BCL2-D103E IC50
# Text: MTS testing kit was purchased from Promega (Madison, WI, USA). The RPMI-1640, Fetal bovine serum and Penicillin-Streptomycin were purchased from BI (Biological Industries, Beit Haemek, Israel). Puromycin was purchased from Beyotime (shanghai, China). Dimethyl sulfoxide (DMSO) was purchased from Sigma (St. Louis., MO, USA). RS4;11-BCL-2 G101V (Cobioer Lot. #: CBD2021063013P4), RS4;11-BCL-2 D103E (Cobioer Lot. #: CBD2021063013P4), RS4;11-BCL-2 D103Y (Cobioer Lot. #: CBD2022012101P4) and RS4;11-BCL-2 F104L (Cobioer Lot. #: CBD2021063014P4) cells were cultured in RPMI1640 supplemented with 1 ug/mL puromycin, 100 U/mL Penicillin-Streptomycin and 10% FBS.
# To investigate whether a compound is able to inhibit the activity of BCL-2 mutation in cells, a mechanism-based assay using engineered cell lines stably overexpressing BCL-2 mutation (RS4;11-BCL-2 G101V, RS4;11-BCL-2 D103E, RS4;11-BCL-2 D103Y, and RS4;11-BCL-2 F104L) was developed. In this assay, the inhibition of BCL-2 mutation was reflected by the inhibition of cell proliferation of engineered RS4;11 cells. Cells were plated into 96-well plates at optimized cell density (RS4;11-BCL-2 G101V: 5000 cells/well; RS4;11-BCL-2 D103E: 7500 cells/well; RS4;11-BCL-2 D103Y: 7500 cells/well; RS4;11-BCL-2 F104L: 5000 cells/well). Plates were incubated at 37° C., with 5% CO2 for 4 h (RS4;11-BCL-2 G101V, RS4;11-BCL-2 F104L) and 24 h (RS4;11-BCL-2 D103E, RS4;11-BCL-2 D103Y), respectively. Compounds were serially diluted and added to the plates with the final concentrations of 10000, 3333.3, 1111.1, 370.4, 123.5, 41.2, 13.7, 4.6 and 1.5 nM. Plates were incubated at 37° C., with 5% CO2 for 120 h (RS4; 11-BCL-2 G101V, RS4; 11-BCL-2 F104L) and 72 h (RS4;11-BCL-2 D103E, RS4;11-BCL-2 D103Y), respectively. 20 μl MTS was added into each well and the plates were incubated at 37° C., with 5% CO2 exactly for 2 h. The absorbance was measured by a microplate reader at 490 nm. IC50 values were calculated using GraphPad Prism 8.0 software.
# Toledo cells = assay: Cell proliferation assay (MTS), Toledo cells; conditions: Homo sapiens, 72 h
# Procedure, shortened: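 Toledo cells (RPMI-1640, 10% FBS) seeded at 30000 cells/well, rested 4 h, then exposed 72 h at 37 °C, 5% CO2 to compound at nine final concentrations, 1.5–10000 nM. Viability by MTS (2 h), absorbance at 490 nm. IC50 from the concentration-response.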
# RS4;11-BCL-2 G101V cells = assay: Cell proliferation assay (MTS), RS4;11-BCL-2 G101V engineered cells; conditions: Homo sapiens, 120 h, read-out: RS4, 11 BCL2-G101V IC50
# Procedure, shortened: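 RS4;11 cells stably overexpressing mutant BCL-2 were seeded and pre-incubated 4 h (G101V, F104L) or 24 h (D103E, D103Y), then exposed to compound at 1.5–10000 nM for 120 h (G101V, F104L) or 72 h (D103E, D103Y) at 37 °C. Viability was read by MTS absorbance at 490 nm after 2 h; IC50 fitted.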
IC50 (RS4;11-BCL-2 D103E cells) [nM],IC50 (RS4;11-BCL-2 G101V cells) [nM],SMILES,IC50 (Toledo cells) [nM]
3,1,"CCOc1nc2[nH]cc(F)c2cc1Oc1cc(N2CCC3(CC2)CC(N2CCN(Cc4ccc(OC)c(OC)c4)C[C@H]2c2ccccc2C(C)C)C3)ccc1C(=O)NS(=O)(=O)c1cnc(NC[C@H]2CC[C@](C)(O)CC2)c([N+](=O)[O-])c1 [Example 8, 4-(2-((R)-4-(3,4-dimethoxybenzyl)-2-(2-isopropylphenyl)piperazin-1-yl)-7-azaspiro[3.5]nonan-7-yl)-2-((6-ethoxy-3-fluoro-1H-pyrrolo[2,3-b]pyridin-5-yl)oxy)-N-((6-((((1r,4r)-4-hydroxy-4-methylcyclohexyl)methyl)amino)-5-nitropyridin-3-yl)sulfonyl)benzamide]",1
3,1,"COc1cc(CN2CCN(C3CC4(CCN(c5ccc(C(=O)NS(=O)(=O)c6cnc(NC[C@H]7CC[C@](C)(O)CC7)c([N+](=O)[O-])c6)c(Oc6cnc7[nH]cc(F)c7c6)c5)CC4)C3)[C@H](c3ccccc3C(C)C)C2)ccc1C1CC1 [Example 73, 4-(2-((R)-4-(4-cyclopropyl-3-methoxybenzyl)-2-(2-isopropylphenyl)piperazin-1-yl)-7-azaspiro[3.5]nonan-7-yl)-2-((3-fluoro-1H-pyrrolo[2,3-b]pyridin-5-yl)oxy)-N-((6-((((1r,4r)-4-hydroxy-4-methylcyclohexyl)methyl)amino)-5-nitropyridin-3-yl)sulfonyl)benzamide]",1
1,1,"CCOc1nc2[nH]cc(F)c2cc1Oc1cc(N2CCC3(CC2)CC(N2CCN(Cc4ccc(OC)nc4)C[C@H]2c2ccccc2C(C)C)C3)ccc1C(=O)NS(=O)(=O)c1cnc(NC[C@H]2CC[C@](C)(O)CC2)c([N+](=O)[O-])c1 [Example 120, 2-((6-ethoxy-3-fluoro-1H-pyrrolo[2,3-b]pyridin-5-yl)oxy)-N-((6-((((1r,4r)-4-hydroxy-4-methylcyclohexyl)methyl)amino)-5-nitropyridin-3-yl)sulfonyl)-4-(2-((R)-2-(2-isopropylphenyl)-4-((6-methoxypyridin-3-yl)methyl)piperazin-1-yl)-7-azaspiro[3.5]nonan-7-yl)benzamide]",1
3,1,"COc1ccc(CN2CCN(C3CC4(CCN(c5ccc(C(=O)NS(=O)(=O)c6cnc(NC[C@H]7CC[C@](C)(O)CC7)c([N+](=O)[O-])c6)c(Oc6cc7c(F)c[nH]c7nc6OC)c5)CC4)C3)[C@H](c3ccccc3C(C)C)C2)nc1 [Example 122, 2-((3-fluoro-6-methoxy-1H-pyrrolo[2,3-b]pyridin-5-yl)oxy)-N-((6-((((1r,4r)-4-hydroxy-4-methylcyclohexyl)methyl)amino)-5-nitropyridin-3-yl)sulfonyl)-4-(2-((R)-2-(2-isopropylphenyl)-4-((5-methoxypyridin-2-yl)methyl)piperazin-1-yl)-7-azaspiro[3.5]nonan-7-yl)benzamide]",1
3,–,"COCCN1CCN(C2CC3(CCN(c4ccc(C(=O)NS(=O)(=O)c5cnc(NC[C@H]6CC[C@](C)(O)CC6)c([N+](=O)[O-])c5)c(Oc5cc6c(F)c[nH]c6nc5OC)c4)CC3)C2)[C@H](c2ccccc2C(C)C)C1 [Example 129, 2-((3-fluoro-6-methoxy-1H-pyrrolo[2,3-b]pyridin-5-yl)oxy)-N-((6-((((1r,4r)-4-hydroxy-4-methylcyclohexyl)methyl)amino)-5-nitropyridin-3-yl)sulfonyl)-4-(2-((R)-2-(2-isopropylphenyl)-4-(2-methoxyethyl)piperazin-1-yl)-7-azaspiro[3.5]nonan-7-yl)benzamide]",1
1,1,"CC(C)c1ccccc1[C@@H]1CN(CC2CCOCC2)CCN1C1CC2(CCN(c3ccc(C(=O)NS(=O)(=O)c4cnc(NC[C@H]5CC[C@](C)(O)CC5)c([N+](=O)[O-])c4)c(Oc4cnc5[nH]cc(F)c5c4)c3)CC2)C1 [Example 318, 2-((3-fluoro-1H-pyrrolo[2,3-b]pyridin-5-yl)oxy)-N-((6-((((1r,4r)-4-hydroxy-4-methylcyclohexyl)methyl)amino)-5-nitropyridin-3-yl)sulfonyl)-4-(2-((R)-2-(2-isopropylphenyl)-4-((tetrahydro-2H-pyran-4-yl)methyl)piperazin-1-yl)-7-azaspiro[3.5]nonan-7-yl)benzamide]",–
1,1,"CC(C)c1ccccc1[C@@H]1CN(C2CCOCC2)CCN1C1CC2(CCN(c3ccc(C(=O)NS(=O)(=O)c4cnc(NC[C@H]5CC[C@](C)(O)CC5)c([N+](=O)[O-])c4)c(Oc4cnc5[nH]cc(F)c5c4)c3)CC2)C1 [Example 320, 2-((3-fluoro-1H-pyrrolo[2,3-b]pyridin-5-yl)oxy)-N-((6-((((1r,4r)-4-hydroxy-4-methylcyclohexyl)methyl)amino)-5-nitropyridin-3-yl)sulfonyl)-4-(2-((R)-2-(2-isopropylphenyl)-4-(tetrahydro-2H-pyran-4-yl)piperazin-1-yl)-7-azaspiro[3.5]nonan-7-yl)benzamide]",–
1,1,"COc1nc2[nH]cc(F)c2cc1Oc1cc(N2CCC3(CC2)CC(N2CCN(C4CCC(OC)CC4)C[C@H]2c2ccccc2C(C)C)C3)ccc1C(=O)NS(=O)(=O)c1cnc(NC[C@H]2CC[C@](C)(O)CC2)c([N+](=O)[O-])c1 (stereo partly drawn) [Example 325, 2-((3-fluoro-6-methoxy-1H-pyrrolo[2,3-b]pyridin-5-yl)oxy)-N-((6-((((1r,4r)-4-hydroxy-4-methylcyclohexyl)methyl)amino)-5-nitropyridin-3-yl)sulfonyl)-4-(2-((R)-2-(2-isopropylphenyl)-4-(4-methoxycyclohexyl)piperazin-1-yl)-7-azaspiro[3.5]nonan-7-yl)benzamide]",–
1,1,"COc1nc2[nH]cc(F)c2cc1Oc1cc(N2CCC3(CC2)CC(N2CCN(C[C@H]4COCCO4)C[C@H]2c2ccccc2C(C)C)C3)ccc1C(=O)NS(=O)(=O)c1cnc(NC[C@H]2CC[C@](C)(O)CC2)c([N+](=O)[O-])c1 [Example 328, 4-(2-((R)-4-(((S)-1,4-dioxan-2-yl)methyl)-2-(2-isopropylphenyl)piperazin-1-yl)-7-azaspiro[3.5]nonan-7-yl)-2-((3-fluoro-6-methoxy-1H-pyrrolo[2,3-b]pyridin-5-yl)oxy)-N-((6-((((1r,4r)-4-hydroxy-4-methylcyclohexyl)methyl)amino)-5-nitropyridin-3-yl)sulfonyl)benzamide]",–
1,–,"CC(C)c1ccccc1[C@@H]1CN(Cc2ccc(S(C)(=O)=O)cc2)CCN1C1CC2(CCN(c3ccc(C(=O)NS(=O)(=O)c4cnc(NC[C@H]5CC[C@](C)(O)CC5)c([N+](=O)[O-])c4)c(Oc4cnc5[nH]cc(F)c5c4)c3)CC2)C1 [Example 329, 2-((3-fluoro-1H-pyrrolo[2,3-b]pyridin-5-yl)oxy)-N-((6-((((1r,4r)-4-hydroxy-4-methylcyclohexyl)methyl)amino)-5-nitropyridin-3-yl)sulfonyl)-4-(2-((R)-2-(2-isopropylphenyl)-4-(4-(methylsulfonyl)benzyl)piperazin-1-yl)-7-azaspiro[3.5]nonan-7-yl)benzamide]",1
1,1,"CC(C)c1ccccc1[C@@H]1CN(C[C@H]2COCCO2)CCN1C1CC2(CCN(c3ccc(C(=O)NS(=O)(=O)c4cnc(NC[C@H]5CC[C@](C)(O)CC5)c([N+](=O)[O-])c4)c(Oc4cnc5[nH]cc(F)c5c4)c3)CC2)C1 [Example 330, 4-(2-((R)-4-(((S)-1,4-dioxan-2-yl)methyl)-2-(2-isopropylphenyl)piperazin-1-yl)-7-azaspiro [3.5]nonan-7-yl)-2-((3-fluoro-1H-pyrrolo[2,3-b]pyridin-5-yl)oxy)-N-((6-((((1r,4r)-4-hydroxy-4-methylcyclohexyl)methyl)amino)-5-nitropyridin-3-yl)sulfonyl)benzamide]",–
